Positions count from the first letter of the chain named.
What was measured:
Test in all cases: whole-cell patch clamp, peak current dose-response
Type in all cases: cell-based
[1] = target: T1, rat P2X4R (Rattus norvegicus, UniProt P51577, C270T)
T1 sequence (P51577 1-388 C270T): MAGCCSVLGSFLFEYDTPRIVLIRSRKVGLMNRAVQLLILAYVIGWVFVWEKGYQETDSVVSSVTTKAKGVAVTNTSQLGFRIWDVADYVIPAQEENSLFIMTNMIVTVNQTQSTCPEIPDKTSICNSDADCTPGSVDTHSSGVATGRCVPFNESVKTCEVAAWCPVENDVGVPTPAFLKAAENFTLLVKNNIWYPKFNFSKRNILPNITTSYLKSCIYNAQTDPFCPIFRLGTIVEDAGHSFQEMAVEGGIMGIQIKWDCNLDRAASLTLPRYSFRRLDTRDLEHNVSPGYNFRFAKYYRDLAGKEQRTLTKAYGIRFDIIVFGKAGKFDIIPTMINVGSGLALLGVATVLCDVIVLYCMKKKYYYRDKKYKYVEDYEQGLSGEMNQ

[2] = target: T2, rat P2X4R (Rattus norvegicus, UniProt P51577, C132A)
T2 sequence (P51577 1-388 C132A): T1 sequence (P51577 1-388 C270T) with C132A, T270C

[3] = target: T3, rat P2X4R (Rattus norvegicus, UniProt P51577, C126T/C149T)
T3 sequence (P51577 1-388 C126T/C149T): T1 sequence (P51577 1-388 C270T) with C126T, C149T, T270C

[4] = target: T4, rat P2X4R (Rattus norvegicus, UniProt P51577, C165A)
T4 sequence (P51577 1-388 C165A): T1 sequence (P51577 1-388 C270T) with C165A, T270C

Nc1ncnc2c1ncn2[C@@H]1O[C@H](COP(=O)(O)OP(=O)(O)OP(=O)(O)O)[C@@H](O)[C@H]1O [ATP]
EC50 [1]: 3.4 ± 1.8 µM | EC50 [2]: 14 ± 4.1 µM | EC50 [3]: 65 ± 24 µM | EC50 [4]: 42 ± 8.9 µM

— publication PMC3170524 (Physiological research / Academia Scientiarum Bohemoslovaca, 2010)
